This is an account of results in patent US20240368156A1, “2-AZABICYCLO[2.2.1]HEPTANE KRAS INHIBITORS” (INCYTE CORPORATION, priority 2023, published 2024).

For experiment [1], the target named is KRAS G12D (Homo sapiens, UniProt P01116, G12D). Put plainly: GDP-GTP exchange assay (bodipy-GDP/GppNHp, SOS1), KRAS G12D. It is filed as biochemical. The settings on record: 2.5 nM bodipy-loaded KRAS G12D, 4 h pre-incubation, 2 h reaction with GppNHp and SOS1; for certain compounds the most potent isomer is quoted; read-out: KRAS_G12D exchange assay IC50. As for the experimental part:
(§1) The inhibitor potency of the exemplified compounds was determined in a fluorescence based guanine nucleotide exchange assay, which measures the exchange of bodipy-GDP (fluorescently labeled GDP) for GppNHp (Non-hydrolyzable GTP analog) to generate the active state of KRAS in the presence of SOS1 (guanine nucleotide exchange factor). Inhibitors were serially diluted in DMSO and a volume of 0.1 μL was transferred to the wells of a black low volume 384-well plate. 5 µL/well volume of bodipy-loaded KRAS G12D diluted to 2.5 nM in assay buffer (25 mM Hepes pH 7.5, 50 mM NaCl, 10 mM MgCl2 and 0.01% Brij-35) was added to the plate and pre-incubated with inhibitor for 4 h at r.t. Appropriate controls (enzyme with no inhibitor or with a G12D inhibitor) were included on the plate. The exchange was initiated by the addition of a 5 μL/well volume containing 1 mM GppNHp and 300 nM SOS1 in assay buffer. The 10 μL/well reaction concentration of the bodipy-loaded KRAS G12D, GppNHp, and SOS1 were 2.5 nM, 500 μM, and 150 nM, respectively. The reaction plates were incubated at r.t. for 2 h, a time estimated for complete GDP-GTP exchange in the absence of inhibitor. For the KRAS G12V mutant, similar guanine nucleotide exchange assays were used with 2.5 nM as final concentration for the bodipy loaded KRAS proteins and 3 h incubation after adding GppNHp-SOS1 mixture. A cyclic peptide described to selectively bind G12D mutant (Sakamoto et al., BBRC 484.3 (2017), 605-611) or internal compounds with confirmed binding were used as positive controls in the assay plates. Fluorescence intensities were measured on a PheraStar plate reader instrument (BMG Labtech) with excitation at 485 nm and emission at 520 nm.
(§2) Either GraphPad prism or Genedata Screener SmartFit was used to analyze the data. The IC50 values were derived by fitting the data to a four parameter logistic equation producing a sigmoidal dose-response curve with a variable Hill coefficient.
(§3) The symbol “†” indicates IC50≤100 nM, “††” indicates IC50>100 nM but ≤1 μM; and “†††” indicates IC50 is >1 μM but ≤5 μM, “††††” indicates IC50 is >5 µM but ≤10 μM. “NA” indicates IC50 not available.

Experiment [2] concerns the target KRAS G12V (Homo sapiens, UniProt P01116, G12V). Put plainly: GDP-GTP exchange assay (bodipy-GDP/GppNHp, SOS1), KRAS G12V. Type of experiment: biochemical. The settings on record: 2.5 nM bodipy-loaded KRAS G12V, 3 h incubation after adding GppNHp-SOS1; for certain compounds the most potent isomer is quoted; read-out: KRAS_G12V exchange assay IC50. As for the experimental part: as §1, §2, §3

A word on the IC50: it is the concentration at which inhibition is half-maximal.

KRAS G12D, sequence (P01116 1-188 isoform P01116-2 G12D): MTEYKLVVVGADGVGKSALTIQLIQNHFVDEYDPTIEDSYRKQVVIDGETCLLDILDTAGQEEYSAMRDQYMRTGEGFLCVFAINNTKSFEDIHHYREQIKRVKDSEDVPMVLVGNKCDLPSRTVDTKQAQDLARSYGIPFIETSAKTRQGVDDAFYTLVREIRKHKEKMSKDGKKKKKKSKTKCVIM
KRAS G12V, sequence (P01116 1-188 isoform P01116-2 G12V): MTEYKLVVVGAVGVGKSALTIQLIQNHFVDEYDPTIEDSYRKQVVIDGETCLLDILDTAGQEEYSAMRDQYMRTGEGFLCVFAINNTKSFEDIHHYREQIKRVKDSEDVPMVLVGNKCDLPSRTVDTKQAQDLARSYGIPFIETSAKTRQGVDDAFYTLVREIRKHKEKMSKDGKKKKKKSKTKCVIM

For `Cc1nc2c(F)c(-c3cccc(Cl)c3Cl)c(CCC#N)cc2c2c1cc([C@H]1[C@H]3C[C@H](C[C@@H]3OC(F)F)N1C(=O)C1(F)CC1)n2[C@H]1[C@H]2CN[C@@H]1C2` (atropisomer, axis not shown; (Ra)) [Example 10, 3-((Ra)-1-((1R,4R,5S)-2-Azabicyclo[2.1.1]hexan-5-yl)-7-(2,3-dichlorophenyl)-2-((1R,3R,4R,5S)-5-(difluoromethoxy)-2-(1-fluorocyclopropane-1-carbonyl)-2-azabicyclo[2.2.1]heptan-3-yl)-6-fluoro-4-methyl-1H-pyrrolo[3,2-c]quinolin-8-yl)propanenitrile], the IC50 in experiment [1] and in experiment [2] was at most 100 nM in each case.

On to `COC(=O)N1[C@@H]2C[C@@H]([C@@H](OC(F)F)C2)[C@@H]1c1cc2c(C)nc3c(F)c(-c4cccc(Cl)c4Cl)c(CCC#N)cc3c2n1[C@H]1[C@H]2CN[C@@H]1C2` (atropisomer, axis not shown; (Ra)) [Example 39, Methyl (1R,3R,4R,5S)-3-((Ra)-1-((1R,4R,5S)-2-azabicyclo[2.1.1]hexan-5-yl)-8-(2-cyanoethyl)-7-(2,3-dichlorophenyl)-6-fluoro-4-methyl-1H-pyrrolo[3,2-c]quinolin-2-yl)-5-(difluoromethoxy)-2-azabicyclo[2.2.1]heptane-2-carboxylate], for which the IC50 in experiment [1] and in experiment [2] was at most 100 nM in each case.

Consider `COC(=O)N1[C@@H]2C[C@@H]([C@@H](OC(F)(F)F)C2)[C@@H]1c1cc2c(C)nc3c(F)c(-c4cccc(Cl)c4Cl)c(CCC#N)cc3c2n1[C@H]1[C@H]2CN[C@@H]1C2` (atropisomer, axis not shown; (Ra)) [Example 40, Methyl (1R,3R,4R,5S)-3-((Ra)-1-((1R,4R,5S)-2-azabicyclo[2.1.1]hexan-5-yl)-8-(2-cyanoethyl)-7-(2,3-dichlorophenyl)-6-fluoro-4-methyl-1H-pyrrolo[3,2-c]quinolin-2-yl)-5-(trifluoromethoxy)-2-azabicyclo[2.2.1]heptane-2-carboxylate], for which the IC50 in experiment [1] and in experiment [2] was at most 100 nM throughout.

As to `Cc1nc2c(F)c(-c3cccc(Cl)c3Cl)c(CCC#N)cc2c2c1cc([C@H]1[C@H]3C[C@H](C[C@@H]3OC(F)(F)F)N1C(=O)C1CC1)n2[C@H]1[C@H]2CN[C@@H]1C2` (atropisomer, axis not shown; (Ra)) [Example 41, 3-((Ra)-1-((1R,4R,5S)-2-Azabicyclo[2.1.1]hexan-5-yl)-2-((1R,3R,4R,5S)-2-(cyclopropanecarbonyl)-5-(trifluoromethoxy)-2-azabicyclo[2.2.1]heptan-3-yl)-7-(2,3-dichlorophenyl)-6-fluoro-4-methyl-1H-pyrrolo[3,2-c]quinolin-8-yl)propanenitrile], the IC50 in experiment [1] and in experiment [2] was at most 100 nM throughout.

Consider `Cc1nc2c(F)c(-c3cccc(Cl)c3Cl)c(CCC#N)cc2c2c1cc([C@H]1[C@H]3C[C@H](C[C@@H]3OC(F)(F)F)N1C(=O)C1(F)CC1)n2[C@H]1[C@H]2CN[C@@H]1C2` (atropisomer, axis not shown; (Ra)) [Example 42, 3-((Ra)-1-((1R,4R,5S)-2-azabicyclo[2.1.1]hexan-5-yl)-7-(2,3-dichlorophenyl)-6-fluoro-2-((1R,3R,4R,5S)-2-(1-fluorocyclopropane-1-carbonyl)-5-(trifluoromethoxy)-2-azabicyclo[2.2.1]heptan-3-yl)-4-methyl-1H-pyrrolo[3,2-c]quinolin-8-yl)propanenitrile], for which the IC50 in experiment [1] and in experiment [2] was at most 100 nM in each case.

Take `COC(=O)N1[C@@H]2C[C@@H]([C@@H](C(F)F)C2)[C@@H]1c1cc2c(C)nc3c(F)c(-c4cccc(Cl)c4Cl)c(CCC#N)cc3c2n1[C@H]1[C@H]2CN[C@@H]1C2` (atropisomer, axis not shown; (Ra)) [Example 43, Methyl (1R,3R,4S,5S)-3-((Ra)-1-((1R,4R,5S)-2-azabicyclo[2.1.1]hexan-5-yl)-8-(2-cyanoethyl)-7-(2,3-dichlorophenyl)-6-fluoro-4-methyl-1H-pyrrolo[3,2-c]quinolin-2-yl)-5-(difluoromethyl)-2-azabicyclo[2.2.1]heptane-2-carboxylate]: the IC50 in experiment [1] and in experiment [2] was at most 100 nM throughout.
